According to ChEMBL document CHEMBL1145509, “Defining the molecular forces that determine the impact of neomycin on bacterial protein synthesis: importance of the 2'-amino functionality” (Antimicrob Agents Chemother, 2007):
In brackets after ≈: the same amount, converted by molar mass.

Experiments:
[1] = system: Escherichia coli; assay: Binding affinity to Escherichia coli 16S rRNA A-site model at Ec2AP1493 position assessed as two rotational correlation time by time resolved fluorescence anisotropy
[2] = system: Escherichia coli; assay: Binding affinity to Escherichia coli 16S rRNA A-site model at Ec2AP1493 position assessed as shorter rotational correlation time by time resolved fluorescence anisotropy
[3] = system: Escherichia coli; assay: Binding affinity to Escherichia coli 16S rRNA A-site model at Ec2AP1492 position assessed as shorter rotational correlation time by time resolved fluorescence anisotropy
[4] = system: Escherichia coli; assay: Antibacterial activity against Escherichia coli DH5-alpha after 24 hrs by broth dilution assay; type: functional; conditions: DH5alpha
[5] = system: Escherichia coli; assay: Binding affinity to Escherichia coli 16S rRNA A-site model at Ec2AP1492 position assessed as two rotational correlation time by time resolved fluorescence anisotropy
[6] = system: Escherichia coli; assay: Antitranslation activity in Escherichia coli extract rRNA S30 assessed as inhibition of luciferase expression by transcription-translation assay; type: functional

| Activity [1] | Activity [2] | Activity [3] | MIC [4] | Activity [5] | IC50 [6] | SMILES |
| --- | --- | --- | --- | --- | --- | --- |
| 5.32 nanoseconds | 1.96 nanoseconds | 2.35 nanoseconds | 1.9 µg/mL (≈ 3.09 µM) | 7.32 nanoseconds | 50 nM | NC[C@@H]1O[C@H](O[C@@H]2[C@@H](O)[C@H](O[C@@H]3[C@@H](O)[C@H](N)C[C@H](N)[C@@H]3O[C@H]3O[C@H](CN)[C@@H](O)[C@H](O)[C@H]3N)O[C@@H]2CO)[C@H](N)[C@@H](O)[C@@H]1O |
| 3.95 nanoseconds | 0.65 nanoseconds | 0.76 nanoseconds | 119 µg/mL (≈ 199 µM) | 4.38 nanoseconds | 1100 nM | NC[C@@H]1O[C@H](O[C@@H]2[C@@H](O)[C@@H]3OC4[C@@H](O)[C@H](N)C[C@H](N)[C@H]4O[C@H]4O[C@H](CN)[C@@H](O)[C@H](O)[C@H]4NC[C@H]2O3)[C@H](N)[C@@H](O)[C@@H]1O (some centres not stated) |
